Reference: paper PMC8841438 (Clinical and Translational Science, 2021)
Entries after “also recorded” stand apart in the source; their conditions may differ. Read-outs that look alike come from different tables or passages of the source. Each block holds one compound with its values, some of them ahead of it.

Columns and labels:
[1] = Study 3: metformin pharmacokinetics alone or with filgotinib in healthy subjects; conditions: human, plasma, oral, 850 mg
[2] = available data; cited from earlier work
Safety assessments = assay type: in vivo, human; conditions: for subjects with AEs: all grade 1
P‐gp = conditions: in vitro; at clinically relevant concentrations; cited from earlier work
JAK1 = conditions: cited from earlier work
[3] = filgotinib: unchanged; cited from earlier work
[4] = target: T1, organic cation transporter 2 (OCT2) (Homo sapiens, UniProt O15244); experiment: In vitro transporter inhibition: OCT2; assay type: in vitro ADME; conditions: data on file at Gilead Sciences, Inc.
T1 sequence (O15244 1-555): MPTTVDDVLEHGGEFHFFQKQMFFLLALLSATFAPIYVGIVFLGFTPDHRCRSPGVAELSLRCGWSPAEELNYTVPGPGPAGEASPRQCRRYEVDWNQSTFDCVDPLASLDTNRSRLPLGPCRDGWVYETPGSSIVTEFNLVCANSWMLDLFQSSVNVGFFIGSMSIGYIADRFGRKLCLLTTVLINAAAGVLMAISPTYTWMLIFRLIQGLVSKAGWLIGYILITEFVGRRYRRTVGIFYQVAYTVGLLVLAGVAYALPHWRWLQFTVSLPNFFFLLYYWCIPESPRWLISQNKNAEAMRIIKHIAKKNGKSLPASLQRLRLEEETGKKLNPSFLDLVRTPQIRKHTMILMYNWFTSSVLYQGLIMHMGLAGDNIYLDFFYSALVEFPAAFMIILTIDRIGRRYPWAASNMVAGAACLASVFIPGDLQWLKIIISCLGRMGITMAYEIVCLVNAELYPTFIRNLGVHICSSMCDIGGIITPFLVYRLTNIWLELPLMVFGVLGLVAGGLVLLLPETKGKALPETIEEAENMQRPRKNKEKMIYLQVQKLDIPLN

bile salt export pump = conditions: in vitro; at clinically relevant concentrations; cited from earlier work
MATE2K = MATE2K (Homo sapiens, UniProt Q86VL8); experiment: In vitro transporter inhibition: MATE2K; assay type: in vitro ADME; conditions: data on file at Gilead Sciences, Inc.
[5] = assay type: in vivo, human; conditions: study 1
[6] = tested on: organic anion transporter 3; conditions: in vitro; at clinically relevant concentrations; cited from earlier work
[7] = tested on: organic anion transporter 4; conditions: in vitro; at clinically relevant concentrations; cited from earlier work
[8] = tested on: organic cation transporter 1; conditions: in vitro; at clinically relevant concentrations; cited from earlier work
[9] = cited from earlier work
[10] = tested on: organic anion transporter 1; conditions: in vitro; at clinically relevant concentrations; cited from earlier work
P‐glycoprotein = conditions: in vitro; cited from earlier work
[11] = tested on: breast cancer resistance protein; conditions: in vitro; at clinically relevant concentrations; cited from earlier work
[12] = assay type: in vivo, human; conditions: study 2
CES2 = conditions: human hepatocytes; cited from earlier work
CES1 = conditions: human hepatocytes; cited from earlier work
[13] = patients with rheumatoid arthritis
[14] = filgotinib + itraconazole vs filgotinib alone
[15] = single filgotinib 100 mg alone, fasting, median (Q1, Q3), N = 13
[16] = single filgotinib 100 mg alone, fasting, plasma, mean (%CV), N = 13
[17] = filgotinib 200 mg after multiple doses of rifampin 600 mg vs alone
[18] = filgotinib + rifampin vs filgotinib alone
[19] = single filgotinib 200 mg alone, fasting, plasma, mean (%CV), N = 14
[20] = single filgotinib 200 mg alone, median (Q1, Q3), N = 14

Chain of MATE2K (Q86VL8 1-566 isoform Q86VL8-3): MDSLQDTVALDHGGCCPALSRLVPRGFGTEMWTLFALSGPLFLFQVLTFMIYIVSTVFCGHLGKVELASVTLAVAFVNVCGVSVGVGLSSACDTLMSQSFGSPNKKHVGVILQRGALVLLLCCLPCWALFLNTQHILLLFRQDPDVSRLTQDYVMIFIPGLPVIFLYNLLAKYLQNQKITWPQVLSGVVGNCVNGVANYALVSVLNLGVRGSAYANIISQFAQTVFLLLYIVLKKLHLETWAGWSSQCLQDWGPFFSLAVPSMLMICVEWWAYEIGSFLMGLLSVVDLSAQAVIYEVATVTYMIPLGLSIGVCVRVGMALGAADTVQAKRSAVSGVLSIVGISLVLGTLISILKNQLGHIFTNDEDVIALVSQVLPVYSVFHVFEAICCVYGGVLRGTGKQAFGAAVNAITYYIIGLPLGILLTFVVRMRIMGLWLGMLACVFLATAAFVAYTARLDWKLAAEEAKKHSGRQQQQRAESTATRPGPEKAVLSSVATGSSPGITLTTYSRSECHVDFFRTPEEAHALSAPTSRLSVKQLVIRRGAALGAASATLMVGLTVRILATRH

AUC(0-inf) [1]: 8720 ng·h/mL
AUC(0-t) [1]: 8640 ng·h/mL
SMILES: CN(C)C(=N)N=C(N)N [Metformin, metformin]
maximal increase of metformin exposure via OCT2, MATE1, and MATE2K inhibition [2]: ~ 2.6 fold
subjects with AEs (Safety assessments; study 3, by treatment period): 25%
AE considered related to study drug (kind of AE) (Safety assessments; study 3, one subject, by treatment phase): nausea + vomiting

inhibition of OCT2 (in words) ([4]; in vitro data): may inhibit
ratio of maximum unbound plasma concentration over in vitro IC50 against OCT2 [4, 13]: 0.5
inhibition of MATE2K (in words) (MATE2K; in vitro data): may inhibit
ratio of maximum unbound plasma concentration over in vitro IC50 against MATE2K (MATE2K; [13]): 0.69
AUCinf %GLSM ratio (90% CI) [5, 14]: 107 (104,110) %
AUClast %GLSM ratio (90% CI) [5, 14]: 106 (103,109) %
T max [5, 15]: 4.00 (4.00, 4.00) h
t1/2 [5, 15]: 17.0 (14.0,19.5) h
AUCinf [5, 16]: 31,200 (18.4) ng*h/ml
AUClast [5, 16]: 30,800 (18.0) ng*h/ml
C max [5, 16]: 1160 (24.8) ng/ml
reduction in AUCinf by rifampin [12, 17]: 38%
reduction in C max by rifampin [12, 17]: 19%
AUCinf %GLSM ratio (90% CI) [12, 18]: 61.9 (57.9, 66.1) %
AUClast %GLSM ratio (90% CI) [12, 18]: 62.3 (58.4, 66.4) %
C max %GLSM ratio (90% CI) [12, 18]: 81.0 (76.8, 85.4) %
effect of rifampin on T max and t 1/2 (in words) ([12]; filgotinib: T max and t 1/2, GS‐829845: Tmax): similar
AUCinf [12, 19]: 77,400 (25.3) ng*h/ml
AUClast [12, 19]: 76,700 (24.8) ng*h/ml
C max [12, 19]: 2900 (15.1) ng/ml
Tmax [12, 20]: 4.00 (3.00, 4.00) h
t1/2 [12, 20]: 15.9 (14.8, 18.9) h
SMILES: Nc1nc2cccc(-c3ccc(CN4CCS(=O)(=O)CC4)cc3)n2n1 [GS‐829845]
inhibition of P‐gp (P‐gp): not inhibitors
JAK1 potency relative to filgotinib (JAK1): ~ 1/10
orally administered dose recovered in feces as the named species [3]: ~ 9%
orally administered dose recovered in urine as the named species [3]: ~ 54%
inhibition of bile salt export pump (bile salt export pump): not inhibitors
effect of itraconazole on pharmacokinetic parameters (in words) ([5]; filgotinib: Tmax, t1/2, GS‐829845: C max, AUCinf, T max, t 1/2): no effect; also recorded: similar; also recorded: did not affect
inhibition of organic anion transporter 3 [6]: not inhibitors
inhibition of organic anion transporter 4 [7]: not inhibitors
inhibition of organic cation transporter 1 [8]: not inhibitors
accumulation following multiple doses [9]: approximately twofold accumulation
time to steady‐state concentrations [9]: ~4 days
inhibition of organic anion transporter 1 [10]: not inhibitors
substrate of P‐glycoprotein (P‐glycoprotein): substrates
inhibition of breast cancer resistance protein [11]: not inhibitors

SMILES: CO[C@H]1/C=C/O[C@@]2(C)Oc3c(C)c(O)c4c(O)c(c(/C=N/N5CCN(C)CC5)c(O)c4c3C2=O)NC(=O)/C(C)=C\C=C\[C@H](C)[C@H](O)[C@@H](C)[C@@H](O)[C@@H](C)[C@H](OC(C)=O)[C@@H]1C [rifampin, reference compound]
induction of CES2 (CES2): moderate induction
induction of CES1 (CES1): moderate induction
subjects with AEs considered to be related to study drug (nausea) (Safety assessments; study 2): 7.1%
subjects with grade 3 laboratory abnormality (occult blood in urine) (Safety assessments; study 2): 14%
subjects with AEs (Safety assessments; study 2, by treatment period): 14%
subjects with at least one graded laboratory abnormality (Safety assessments; study 2, by treatment period, majority grade 1 or 2): 93%
